Data taken from the supplement of paper PMC10307832.

Assays:
Assay in all cases: relative viability (nuclei count vs DMSO), 5 days (fraction); higher = more cells survive
Bortezomib + Foretinib = compound: CC(C)C[C@H](NC(=O)[C@H](Cc1ccccc1)NC(=O)c1cnccn1)B(O)O [Bortezomib] + COc1cc2c(Oc3ccc(NC(=O)C4(C(=O)Nc5ccc(F)cc5)CC4)cc3F)ccnc2cc1OCCCN1CCOCC1 [Foretinib] (partner 0.25 µM)
Method in brief: (§1)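 Lung cancer cell lines were pin-tool dosed in 1536-well plates on the day after seeding, with either a lone drug or a fixed anchor-drug dose plus five library-drug doses (not always all listed) in √10 steps. Nuclei were counted on 4× images after 5 days. Relative viability is the ratio of treated-well to vehicle-well nuclei counts, with each value a median of duplicate plates.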

Bortezomib + Palbociclib = compound: CC(C)C[C@H](NC(=O)[C@H](Cc1ccccc1)NC(=O)c1cnccn1)B(O)O [Bortezomib] + CC(=O)c1c(C)c2cnc(Nc3ccc(N4CCNCC4)cn3)nc2n(C2CCCC2)c1=O [Palbociclib] (partner 0.5 µM)
Method in brief: as §1

Obatoclax + Pemetrexed = compound: COC1=CC(c2cc3ccccc3[nH]2)=N/C1=C\c1[nH]c(C)cc1C [Obatoclax] + Nc1nc2[nH]cc(CCc3ccc(C(=O)N[C@@H](CCC(=O)O)C(=O)O)cc3)c2c(=O)[nH]1 [Pemetrexed] (partner 0.2 µM)
Method in brief: as §1

[1] = compound: CC1=CC(=NN1)NC2=CC(=NC(=N2)/C=C/C3=CC=CC=C3)N4CCN(CC4)C + N=C(N)NC(=N)NCCc1ccccc1 [Phenformin] (partner 250 µM)
Method in brief: as §1

| Cell Line | relative viability (Bortezomib + Foretinib; first compound 0.0002 µM) | relative viability (Bortezomib + Foretinib; first compound 0.000632 µM) | relative viability (Bortezomib + Foretinib; first compound 0.002 µM) | relative viability (Bortezomib + Foretinib; first compound 0.006325 µM) | relative viability (Bortezomib + Foretinib; first compound 0.02 µM) | relative viability (Bortezomib + Palbociclib; first compound 0.0002 µM) | relative viability (Bortezomib + Palbociclib; first compound 0.000632 µM) | relative viability (Bortezomib + Palbociclib; first compound 0.002 µM) | relative viability (Bortezomib + Palbociclib; first compound 0.006325 µM) | relative viability (Bortezomib + Palbociclib; first compound 0.02 µM) | relative viability (Obatoclax + Pemetrexed; first compound 0.01 µM) | relative viability (Obatoclax + Pemetrexed; first compound 0.03162 µM) | relative viability (Obatoclax + Pemetrexed; first compound 0.1 µM) | relative viability (Obatoclax + Pemetrexed; first compound 0.3162 µM) | relative viability (Obatoclax + Pemetrexed; first compound 1 µM) | relative viability ([1]; first compound 0.08 µM) | relative viability ([1]; first compound 0.253 µM) | relative viability ([1]; first compound 0.8 µM) | relative viability ([1]; first compound 2.53 µM) | relative viability ([1]; first compound 8 µM) |
| --- | --- | --- | --- | --- | --- | --- | --- | --- | --- | --- | --- | --- | --- | --- | --- | --- | --- | --- | --- | --- |
| LCLC-97TM1 | 0.906 | 0.929 | 0.721 | 0.242 | 0.151 | 0.235 | 0.183 | 0.12 | 0.0721 | 0.0639 | 0.171 | 0.188 | 0.18 | 0.178 | 0.161 | 0.448 | 0.468 | 0.41 | 0.236 | 0.154 |
| LCLC-103H | 0.679 | 0.698 | 0.268 | 0.162 | 0.13 | 0.475 | 0.462 | 0.419 | 0.324 | 0.254 | 0.461 | 0.487 | 0.379 | 0.519 | 0.528 | 0.344 | 0.34 | 0.333 | 0.326 | 0.232 |
| LK-2 | 0.982 | 1.39 | 1.12 | 0.161 | 0.165 | 0.649 | 0.685 | 0.415 | 0.125 | 0.133 | 0.273 | 0.227 | 0.248 |  | 0.317 | 0.313 | 0.327 | 0.309 | 0.111 | 0.117 |
| LOU-NH91 | 0.863 | 0.867 | 0.328 | 0.258 | 0.243 | 0.512 | 0.523 | 0.383 | 0.32 | 0.302 | 0.334 | 0.382 | 0.323 | 0.379 | 0.47 | 0.7 | 0.768 | 0.78 | 0.509 | 0.365 |
| LU99A | 0.887 | 0.721 | 0.812 | 0.755 | 0.227 | 0.464 | 0.364 | 0.405 | 0.261 | 0.164 | 0.16 | 0.172 |  | 0.183 | 0.18 | 0.748 | 0.707 | 0.716 | 0.411 | 0.153 |
| LXF-289 | 0.98 | 0.964 | 0.991 | 0.127 | 0.0671 | 0.573 | 0.58 | 0.633 | 0.102 | 0.0908 | 0.847 | 0.907 | 0.835 | 0.94 | 0.854 | 0.478 | 0.464 | 0.496 | 0.265 | 0.114 |
| NCI-H23 | 0.895 | 0.972 | 0.861 | 0.166 | 0.14 | 0.456 |  | 0.398 | 0.158 | 0.13 | 0.665 | 0.636 | 0.717 | 0.561 | 0.468 | 0.793 | 0.887 | 0.711 | 0.247 | 0.204 |
| NCI-H322M | 0.894 |  | 0.773 | 0.654 | 0.327 | 0.486 | 0.448 | 0.463 | 0.441 | 0.404 | 0.683 | 0.609 | 0.632 | 0.655 | 0.625 | 0.759 | 0.852 | 0.688 | 0.31 | 0.218 |
| NCI-H358 | 0.538 | 0.647 | 0.642 | 0.0816 | 0.0663 | 0.158 | 0.11 | 0.0987 | 0.0826 | 0.0983 | 0.159 | 0.185 | 0.166 | 0.192 | 0.14 | 0.272 | 0.377 | 0.229 | 0.0644 | 0.0549 |
| NCI-H441 | 0.801 | 0.987 | 0.563 | 0.188 | 0.168 | 0.22 | 0.2 | 0.129 | 0.109 | 0.101 | 0.231 | 0.217 | 0.27 | 0.244 | 0.269 | 0.909 | 0.955 | 0.797 | 0.192 | 0.156 |
| NCI-H460 | 0.983 | 1.03 | 1.13 | 0.115 | 0.0294 | 0.181 | 0.283 | 0.155 | 0.0455 | 0.0161 | 0.0642 | 0.0576 | 0.0607 | 0.0693 | 0.0648 | 0.552 | 0.597 | 0.514 | 0.0212 | 0.0183 |
| NCI-H520 | 0.871 | 0.773 | 0.58 | 0.184 | 0.148 | 0.198 | 0.18 | 0.169 | 0.141 | 0.131 | 0.657 | 0.714 | 0.656 | 0.643 | 0.249 | 0.655 | 0.62 | 0.603 | 0.23 | 0.172 |
| NCI-H647 | 0.904 | 1.3 | 1.25 | 0.0379 | 0.0377 | 0.385 | 0.251 | 0.426 | 0.0189 | 0.0229 | 0.207 | 0.164 | 0.19 | 0.144 | 0.116 | 0.481 | 0.634 | 0.47 | 0.0675 | 0.0451 |
| NCI-H661 | 1.04 | 1.03 | 1.01 | 0.559 | 0.219 | 0.4 | 0.409 | 0.434 | 0.284 | 0.203 | 0.883 | 0.975 | 0.933 | 0.874 | 0.848 | 0.282 |  | 0.265 | 0.226 | 0.211 |
| NCI-H838 | 1 | 1 | 1.17 | 0.165 | 0.13 | 0.211 | 0.23 | 0.191 | 0.136 | 0.103 | 0.237 | 0.247 | 0.233 | 0.223 | 0.198 | 0.567 | 0.583 | 0.462 | 0.123 | 0.107 |
